Measured values published in US20030124585A1, “Type II gonadotropin-releasing hormone receptor and polynucleotides encoding therefor” (Medical Research Council, priority 2000, published 2003).
Where two headings read alike, the source gives them in different places. Square brackets hold non-standard residues; d marks the D form. Peptide text beside a SMILES is read from it. pGlu = O=C1CC[C@@H](C(=O)O)N1

Columns and labels:
Marmoset Type II GnRH-R [1] = biological target: T1, Marmoset Type II GnRH-R (Callithrix jacchus, UniProt Q95MG6); assay: Receptor binding, competition with 125I-[His5,D-Tyr6]GnRH, transfected COS-7 cells; conditions: for IC50: s.e.m.
T1 construct: Full length marmoset Type II GnRH receptor was produced by PCR; expressed in transfected cells; host or cells: COS-7 cells, transient transfection (Superfect), plasmid pcDNA3.1+
T1 sequence (Q95MG6 1-380): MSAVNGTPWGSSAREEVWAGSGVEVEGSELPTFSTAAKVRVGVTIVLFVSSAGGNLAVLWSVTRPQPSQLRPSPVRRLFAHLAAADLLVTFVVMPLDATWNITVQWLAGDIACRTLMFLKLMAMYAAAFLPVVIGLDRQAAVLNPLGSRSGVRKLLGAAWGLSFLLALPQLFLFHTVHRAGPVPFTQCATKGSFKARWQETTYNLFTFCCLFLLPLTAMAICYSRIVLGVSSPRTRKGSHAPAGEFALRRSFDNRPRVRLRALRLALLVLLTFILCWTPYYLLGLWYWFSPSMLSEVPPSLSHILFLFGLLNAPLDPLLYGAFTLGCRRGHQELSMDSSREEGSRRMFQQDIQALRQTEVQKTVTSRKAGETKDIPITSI
Protocol: (§1) Cell culture and transfection. COS-7 cells were cultured as previously described (20, 21). Transient transfections of COS-7 cells with human Type I GnRH receptor or marmoset Type II GnRH receptor, along with myc-tagged ERK2, JNK and p38α constructs were performed using Superfect (Qiagen) according to the manufacturer's protocol. All assays described were performed 48 h post transfection.
(§2) Receptor binding and inositol phosphate production.

Marmoset Type II GnRH-R [2] = assay: as above; conditions: Type II versus Type I receptor; for Selectivity of the Type II receptor for the ligand (in words): binding, COS-7 cells
Protocol: as §1, §2

[3] = biological target: T2, human Type I GnRH receptor (Homo sapiens, UniProt P30968); assay: as above; conditions: for IC50: Table 1, s.e.m., n=3-6, read-out: Ligand binding (IC50) Human Type I
T2 construct: expressed in transfected cells; host or cells: COS-7 cells, transient transfection (Superfect)
T2 sequence (P30968 1-328): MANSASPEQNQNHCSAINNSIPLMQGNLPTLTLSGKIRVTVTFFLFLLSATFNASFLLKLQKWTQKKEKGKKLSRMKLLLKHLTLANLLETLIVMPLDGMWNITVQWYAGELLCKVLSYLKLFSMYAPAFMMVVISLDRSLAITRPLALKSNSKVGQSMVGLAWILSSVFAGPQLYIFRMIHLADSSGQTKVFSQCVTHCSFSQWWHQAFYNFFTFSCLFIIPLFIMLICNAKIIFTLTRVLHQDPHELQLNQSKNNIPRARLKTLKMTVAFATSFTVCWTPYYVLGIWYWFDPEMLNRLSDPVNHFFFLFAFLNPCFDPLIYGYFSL
Protocol: as §1, §2

Marmoset Type II GnRH-R [4] = biological target: T1, Marmoset Type II GnRH-R; assay: Total inositol phosphate production in transfected COS-7 cells; assay type: cell-based; conditions: for EC50: s.e.m.
Protocol: as §1, §2

[5] = biological target: T2, human Type I GnRH receptor; assay: as above; assay type: cell-based; conditions: for EC50: Table 1, s.e.m., n=3-6, read-out: InsP production (EC50) Human Type I
Protocol: as §1, §2

[6] = biological target: T3, marmoset Type II GnRH receptor (Callithrix jacchus, UniProt Q95MG6); assay: Phospho-MAP kinase assay, p38α activation in transfected COS-7 cells; assay type: cell-based; conditions: 100 nM, FIG. 8c
T3 construct: Full length marmoset Type II GnRH receptor was produced by PCR; expressed in transfected cells; host or cells: COS-7 cells, transient transfection (Superfect), plasmid pcDNA3.1+
T3 sequence (Q95MG6 1-380): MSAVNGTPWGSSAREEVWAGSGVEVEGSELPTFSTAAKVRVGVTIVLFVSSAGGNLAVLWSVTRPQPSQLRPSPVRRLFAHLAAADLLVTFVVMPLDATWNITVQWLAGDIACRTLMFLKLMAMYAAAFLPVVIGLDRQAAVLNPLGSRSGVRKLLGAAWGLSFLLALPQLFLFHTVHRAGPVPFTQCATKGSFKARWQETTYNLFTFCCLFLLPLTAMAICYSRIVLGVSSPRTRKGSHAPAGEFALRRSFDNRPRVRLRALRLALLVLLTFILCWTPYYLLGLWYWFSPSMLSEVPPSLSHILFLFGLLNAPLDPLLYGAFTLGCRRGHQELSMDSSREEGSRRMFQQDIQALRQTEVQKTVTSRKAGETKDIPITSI
Protocol: as §1
(§3) Phospho-MAP kinase assay. […] After ligand stimulation, COS-7 cells were prepared for immunoprecipitation (23). Co-transfected myc-tagged MAP kinase constructs were immunoprecipitated from cell lysates by overnight incubation with myc-agarose slurry (Santa Cruz), washed, an equal volume of 2×Laemmli sample buffer added, resolved by SDS-PAGE and electrotransferred to PVDF membrane (NEN Life Sciences). Activated MAP kinase was detected using anti-phospho-ERK/JNK/p38a-kinase specific antisera (New England Biolabs), visualised by enzyme-linked chemifluorescence (Amersham-Pharmacia) and quantified using a phosphorimager. The degree of phosphorylated MAP kinase was normalised to the amount of unphosphorylated MAP kinase detected with specific antisera.

FSH and LH secretion = assay: Stimulation of LH and FSH in sheep (Soay ram model); assay type: in vivo; conditions: 10 μg dose, intravenous bolus, n=8
Protocol: Stimulation of LH and FSH in sheep. […] The same animals (n=8) were used on the two occasions. The GnRHs were administered at doses of 250 ng/ram and 10 μg/ram in a cross-over design with a week between treatments to permit full recovery. The peptides were dissolved in 1 ml of 0.9% saline and given as an intravenous bolus. Blood samples were collected every 10 min, from 20 min before, until 2 h after the treatments and assayed by specific radioimmunoassays (24). The FSH and LH responses to the GnRH agonists were calculated as delta responses (2 h mean hormone concentration post treatment minus 20 min mean pre-treatment hormone concentration). […] This was assessed for each animal and then for the group (mean±SEM, n=8), under both LD and SD.

Type I receptor = conditions: cited from earlier work
[7] = biological target: T2, human Type I GnRH receptor; assay: Phospho-MAP kinase assay, ERK2 activation in transfected COS-7 cells; assay type: cell-based; conditions: FIG. 8a
Protocol: as §1, §3

[8] = FIG. 4, COS-7 cells, n=2, read-out: IC50, heterologous competition binding of 125I-[His5,D-Tyr6]GnRH
[9] = Table 1, n=3-6, read-out: Ligand binding (IC50) Marmoset Type II
[10] = FIG. 5, COS-7 cells, n=2, read-out: EC50, total inositol phosphate production
[11] = Table 1, n=3-6, read-out: InsP production (EC50) Marmoset Type II

| Structure (SMILES) | Receptor binding activity relative to mammalian GnRH I at the Type II receptor (Marmoset Type II GnRH-R [1]; COS-7 cells) | IC50 (Marmoset Type II GnRH-R [1]; [8]) | IC50 (Marmoset Type II GnRH-R [1]; [9]) | Affinity for the Type II receptor relative to the Type I receptor (Marmoset Type II GnRH-R [2]) | Selectivity of the Type II receptor for the ligand (in words) (Marmoset Type II GnRH-R [2]) | Receptor binding activity as percent of mammalian GnRH I at the Type I receptor ([3]; COS-7 cells) | Inositol phosphate production activity relative to mammalian GnRH I at the Type II receptor (Marmoset Type II GnRH-R [4]; COS-7 cells) | EC50 (Marmoset Type II GnRH-R [4]; [10]) | EC50 (Marmoset Type II GnRH-R [4]; [11]) | Inositol phosphate production activity as percent of mammalian GnRH I at the Type I receptor ([5]; COS-7 cells) | Activation of p38α MAP kinase (in words) [6] | Mean ratio of FSH to LH secretion relative to that induced by mammalian GnRH I (FSH and LH secretion; sexually active rams) | Mean ratio of FSH to LH secretion relative to that induced by mammalian GnRH I (FSH and LH secretion; sexually quiescent rams) | Affinity and potency as percent of mammalian GnRH I at the Type I receptor (Type I receptor) | Activation of ERK2 (in words) [7] | IC50 [3] | EC50 [5] |
| --- | --- | --- | --- | --- | --- | --- | --- | --- | --- | --- | --- | --- | --- | --- | --- | --- | --- |
| NC(=O)CNC(=O)[C@@H]1CCCN1C(=O)[C@H](Cc1ccc(O)cc1)NC(=O)[C@H](Cc1c[nH]c2ccccc12)NC(=O)CNC(=O)[C@H](Cc1c[nH]cn1)NC(=O)[C@H](CO)NC(=O)[C@H](Cc1c[nH]c2ccccc12)NC(=O)[C@H](Cc1c[nH]cn1)NC(=O)[C@@H]1CCC(=O)N1 [GnRH II, [His^5,Trp^7,Tyr^8]GnRH I] ([pGlu]HWSHGWYPG-NH2; C-terminus assumed) | 40 fold | 1.3 ± 0.2 nM | 1.07 ± 0.04 nM | 24 fold | high selectivity | 10% | 90 fold | 0.46 ± 0.12 nM | 0.45 ± 0.05 nM | 9% | selective and time-dependent activation | 2.14±0.29 times | 2.02±0.34 times | ≤ 20% |  |  |  |
| CC(C)C[C@H](NC(=O)CNC(=O)[C@H](Cc1ccc(O)cc1)NC(=O)[C@H](CO)NC(=O)[C@H](Cc1c[nH]c2ccccc12)NC(=O)[C@H](Cc1c[nH]cn1)NC(=O)[C@@H]1CCC(=O)N1)C(=O)N[C@@H](CCCNC(=N)N)C(=O)N1CCC[C@H]1C(=O)NCC(N)=O [GnRH I] |  | 51.7 ± 1.9 nM | 42.6 ± 3.19 nM |  |  |  |  | 33.2 ± 6.3 nM | 40.5 ± 4.43 nM |  |  |  |  |  | considerably more potent than GnRH II |  |  |
| N=C(N)NCCC[C@@H](NC(=O)[C@H](Cc1c[nH]cn1)NC(=O)[C@H](CO)NC(=O)[C@H](Cc1c[nH]c2ccccc12)NC(=O)[C@H](Cc1c[nH]cn1)NC(=O)[C@@H]1CCC(=O)N1)C(=O)N[C@@H](Cc1c[nH]c2ccccc12)C(=O)N[C@@H](Cc1ccc(O)cc1)C(=O)N1CCC[C@H]1C(=O)NCC(N)=O [[D-Arg^6] GnRH II, [D-Arg^6]GnRH II] ([pGlu]HWSH[dR]WYPG-NH2; C-terminus assumed) |  |  | 3.34 ± 0.06 nM |  | more selective |  |  | 1.1 ± 0.23 nM | 2.39 ± 0.64 nM |  |  |  |  |  |  | 11.9 ± 0.35 nM | 3.8 ± 0.71 nM |
| CC(C)C[C@H](NC(=O)[C@H](Cc1c[nH]c2ccccc12)NC(=O)CNC(=O)[C@H](Cc1ccc(O)cc1)NC(=O)[C@H](CO)NC(=O)[C@H](Cc1c[nH]c2ccccc12)NC(=O)[C@H](Cc1c[nH]cn1)NC(=O)[C@@H]1CCC(=O)N1)C(=O)N1CCC[C@H]1C(=O)NCC(N)=O [sGnRH, [Trp^7,Leu^8]GnRH I] ([pGlu]HWSYGWLPG-NH2; C-terminus assumed) |  | 9.8 ± 1.4 nM | 9.48 ± 2.17 nM |  | more selective |  |  | 8.7 ± 0.5 nM | 5.99 ± 0.91 nM |  |  |  |  |  |  | 244 ± 23.6 nM | 9.62 ± 3.5 nM |
